The values below come from patent US20070225213A1, “Nucleic acid carriers for delivery of therapeutic agents” (priority 2006, published 2007).

SMILES strings stand for the structures.

Assay [1] has as its system BHK21. Kind of assay: Cell uptake by MTN fluorescence EX620/EM680 (Examples 10 and 13, EX051605). Particulars: 10% w/w loading in DNA. Format: cell-based, hamster. How it is done:
(§1) Materials: HSGDNA, MTN, ODNAS1116 (phosphorothioated, single stranded DNA, and Beta-cyclodextrin polymer (BCD-SBE, KKBIOMED Inc.) were previously prepared in water at 10 mg/ml, 1 mg/ml, 0.95 mg/ml, and 10 mg/ml respectively.
(§2) Procedure: For NAC-MTN, combined 37 ul HSGDNA (herring genomic DNA, Promega Inc.), 1426 ul HBSS( Hank's buffered saline, Sigma-Aldrich), with 37 ul of MTN, followed by 1500 ul 2× DMEM media to give 3 ml final and 24 uM (24 micro-molar) MTN and 10% w/w drug loading of MTN. For NAC-MTN (AR1505) combined 62 ul of HSDNA (deg. herring sperm DNA, Sigma) with 2377 ul HBSS, 61.7 ul MTN, 2500 ul 2× media to give 5 ml final and 24 uM MTN and 10% w/w drug loading of MTN to HSDNA. […]
(§3) Plate#1 Media was aspirated and cells treated with 100 ul of either NAC-MTN, CD-MTN, or MTN at 24 uM MTN final or 12.3 ug/ml MTN in all samples. Samples containing MTN were incubated 4 hours, removed, and fluorescence taken at EX620/EM680. […]
(§4) Samples were incubated 4 hours, removed, and MTN fluorescence taken at EX620/EM680. […] Average MTN fluorescence was averaged from 6 wells. For each cell type, MTN fluorescence was highest in MTN treated cells, followed by CD-MTN, and lowest in NAC-MTN. […]
(§5) PLATE#2: Dispensed 50 ul from source plate into plate #2 to give 150 ul final vol 4.1 ug/ml, 8 uMfinal per well, pre-read fluorescence w samples (bkgd) incubated 5 hr, removed, replaced w/ media, read fluor. […]

The subject of assay [2] is MCF7. The assay is described as above. To be noted: 10% w/w loading in DNA. It counts as cell-based, human. How it is done:
as §1, §2, §3, §4, §5

Assay [3] concerns COS7. Kind of assay: Effect of plating time on uptake of NAC-MTN and MTN, fluorescence (Example 11). Format: cell-based, green monkey. As to the method:
The effect of plating time on the differential rates of uptake between NAC-MTN and MTN were assayed in cells treated <1 hour and 24 hours after plating.
On day 1, MCF7, COS7, 3T3, and BHK21 cells were plated out in a standard tissue culture plate. After incubation of 20 minutes samples were added to cells in rows A, C, E, and G. Cells were incubated at 37C in a standard atmosphere of 5%CO2.
On day 2, samples were added to rows D, F, and H and the fluorescence was obtained EX620/EM680 S=80. Samples were removed from A,C,E and G, replaced with media and fluorescence read again. On day 2 observed significant drug toxicity in cells of rows A,C, E, G. Sample addition was postponed in row B since MCF7 were not yet confluent.
On day 3, added samples to cells in row B containing confluent MCF7's, removed samples from rows D, F, and H replaced with media and read fluorescence.
Fluorescence data from cells taken after removal of media was used to quantitate total MTN retained in the cells. Fluorescence data were converted to mg/ml MTN using a standard curve prepared with free MTN or NAC-MTN.
The percentage difference in fluorescence between cells treated with NAC-MTN or MTN alone was used to compare relative drug uptake.
The MTN fluorescence ratios were obtained by dividing MTN fluorescence of cells incubated for 24 hours by fluorescence of cells incubated 30 minutes. […] The uptake in BHK21 was roughly equivalent for NAC-MTN regardless of plate adherence, however it should be noted that BHK21 adhere very rapidly to the plate.
Fluorescence data were converted to micromolar drug concentrations (uM MTN) using a standard curve for either nucleic acid bound or unbound drug, and drug uptake ratios were obtained by dividing the t(24 hour)/t(30 min.). The ratios of absolute drug concentration per well show more dramatic differences in uptake as shown below.

As to `O=C1c2c(O)ccc(O)c2C(=O)c2c(NCCNCCO)ccc(NCCNCCO)c21` [MTN, mitoxantrone], the “% reduction in fluorescence relative to MTN alone (MTN = 0%)” value was 0% in assay [1] (Plate#1, 24 uM MTN, 4 hours); 0% in assay [1] (Plate#2, 8 uM MTN); 0% in assay [2] (Plate#1, 24 uM MTN, 4 hours); 0% in assay [2] (Plate#2, 8 uM MTN). For the same molecule, the “MTN FLUOR Ratio of t(24)/t(<1)” value in assay [3] is reported as 0.70. The “FLUOR (MTN fluorescence in cells)” value was determined as 15289 in assay [3] (cells treated 24 hour after plating) and 13814 in assay [3] (cells treated <1 hour after plating). For the same molecule, the “Ratio uM MTN of t(24)/t(<1)” value in assay [3] (from standard curve for bound or unbound drug) is reported as 1.2.
